From US10359436B2, “Nuclear stress response in motor neuron disease and other neurological diseases” (DIGNITY HEALTH, priority 2013, dated 2019) come the findings set out here.

This assay deals with HEK293 cells. Nature of the assay: Quantitative immunocolocalization of RBM45 with the nuclear stress body marker HSF1 in stressed HEK293 cells. Type of assay: cell-based. To be noted: mitoxantrone treatment as cellular stress, quantitative immunocolocalization analysis. How it is done:
An imaging-based approach combining immunofluorescence microscopy (IF), digital deconvolution (DD), and automated image analysis (IA) is used to examine RBM45 redistribution and colocalization with markers of subnuclear structures in response to heat shock and mitoxantrone (topoisomerase II inhibitor, genotoxic stress).
For immunocytochemistry experiments, HEK293 cells were grown and stained with antibodies, as above. Corresponding images were subjected to digital deconvolution, counting as above, and quantitative immunocolocalization with markers of subnuclear structures.
Digital deconvolution is a mathematical post-processing method that removes out of focus light from wide field fluorescent microscopic images, based on the mathematical modeling of the behavior of light in a given imaging system, called the point spread function (PSF). The effect of deconvolution is similar, in practice, to using a confocal microscope. […] Several deconvolution procedures exist, which vary in complexity/algorithm. […]
During image analysis, counts are based on thresholding of image pixel intensity values and counts are made using particle detection algorithms (vary size/circularity). On example of colocalization analysis is quantitative immunocolocalization analysis as described in Li et al., 2004. […]

As to `O=C1c2c(O)ccc(O)c2C(=O)c2c(NCCNCCO)ccc(NCCNCCO)c21` [mitoxantrone], the “colocalization of RBM45 with the nuclear stress body marker HSF1” value was “significant colocalization”.
